Measurements as given in publication PMC4977564, “Inhibition of Mycobacterium tuberculosis dihydrodipicolinate synthase by alpha-ketopimelic acid and its other structural analogues” (Scientific Reports, 2016).

Legend:
CC(=O)C(=O)O = assay: purified protein, by the assay type; details: pH 7.4; 37.0 °C
Mtb-rDapA [1] = biological target: T1, Mtb-rDapA (Mycobacterium tuberculosis, UniProt P9WP25); assay: Fluorescence-based thermal shift assay; assay type: binding; details: ligand 0.2 mM to 1 mM; Mtb-rDapA Tm 84.8 °C
T1 sequence (P9WP25 whole entry, looked up): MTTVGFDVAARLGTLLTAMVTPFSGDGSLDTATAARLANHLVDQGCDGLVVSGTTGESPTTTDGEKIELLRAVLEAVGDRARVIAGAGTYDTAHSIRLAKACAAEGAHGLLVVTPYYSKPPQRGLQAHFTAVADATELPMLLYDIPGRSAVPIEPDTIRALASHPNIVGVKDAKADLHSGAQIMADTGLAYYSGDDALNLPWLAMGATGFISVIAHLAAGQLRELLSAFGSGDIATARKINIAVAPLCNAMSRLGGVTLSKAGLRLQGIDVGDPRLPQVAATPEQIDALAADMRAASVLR
Excerpt: The fluorescence based thermal shift assay for screening of identified ligands, which is based on the principle that ligand binding alters thermal stability of protein. This method allows us to monitor the protein denaturation upon heating using fluorescence based dye (Sypro orange, Sigma, USA), which binds to hydrophobic part of proteins during protein denaturation and emits fluorescence at 580 nm[43]. We can monitor the changes in fluorescence and generate a thermal melting curve using real time PCR. The mid-point of the melting curve designated as the melting temperature Tm corresponding to 50% of protein being denatured.
The thermal shift assay was carried out in the LightCycler^R LC480 qPCR machine using 384 well PCR plates (Roche, USA). An assay mixture of 20 μl contained 20 μM Mtb-rDapA, 15 X Sypro Orange (Sigma), 50 mM sodium phosphate buffer pH 7.4 and ligand in the range 0.2 mM to 1 mM. The ligands and Mtb-rDapA were diluted in sodium phosphate buffer. The PCR plates were sealed with optical seal, mixed well and centrifuged after the assay mixture was added. […] The fluorescence intensity was measured by excitation at 465 nm and emission at 580 nm. Curve fitting, melting temperature calculation and report generation on the raw Fluorescence based thermal shift assay (FTS) data were performed using pre-installed analysis software provided with the instrument (Roche, USA)[44].

Mtb-rDapA [2] = biological target: T1, Mtb-rDapA; assay: LC-MS/MRM quantitation of THDP product of the coupled assay; assay type: biochemical; details: MRM, 1 mM KPA (saturating concentration)
Description: The activity of Mtb-rDapA and Mtb-rDapB in catalyzing formation of THDP was confirmed by LC/MS analysis. A reaction mixture contained 1 μg of Mtb-rDapA, 30 μg of Mtb-rDapB, 10 mM pyruvate, 1 mM ASA, 0.16 mM NADPH and 50 mM sodium phosphate buffer pH 7.4 run at 37 °C for 5 min using UV-Vis spectrophotometer for THDP formation. Mtb-rDapA and Mtb-rDapB were then inactivated at 55 °C for 5 min to preserve integrity of reaction products and reaction mixture passed through 10 kDa cutoff filter unit (Millipore, USA) to filter the proteins and centrifuged at 6800 × g. The flow-through containing reaction products was used in LC/MS analysis. In order to observe the effect of inhibitor on THDP formation we added α-KPA in the assay mixture. The sample was subjected to analysis on a LC/ESI-MS (Quattro Micro API, Waters) coupled to a UPLC inlet. The flow through was loaded onto an Acquity UPLC BEH shield RP18, […], 2.1 100 mm column comprising a mobile phase of buffer A (water, 0.1% formic acid) and buffer B (acetonitrile, 0.1% formic acid) at a flow rate of 0.2 ml min^−1. […] Quantitative analysis of THDP formation was carried out by assessment of peak area in multiple reactions monitoring (MRM) mode with precursor ion 172.3 of THDP and corresponding daughter ions 125.6 and 107.5 by using above mentioned LC-MS/MS parameters.

Mtb-rDapA [3] = biological target: T1, Mtb-rDapA; assay: Size exclusion chromatography of Mtb-rDapA oligomerization
Description: Prior to gel filtration, the pre-packed Superdex 200 10/300 column (GE Healthcare) was pre-equilibrated with 50 mM Tris HCl pH 7.5, 150 mM NaCl and 10% glycerol. 25 μM Mtb-rDapA in 25 mM Tris/150 mM NaCl buffer was loaded in 500 μl volume. Multiple fractions of 1 ml volume were collected and each fraction runs on 12% SDS-PAGE gel electrophoresis. The ligand α-KPA in 1:5, 1:10 and 1:50 molar ratio of Mtb-rDapA was incubated with Mtb-rDapA and subjected to run as above. The chromatograms were collected by measuring absorption at 280 nm as a function of buffer volume at a flow rate of 0.3 ml/min. The column was calibrated by passing Apoferritin eluted at 10.5 ml, β-Amylase eluted at 12.5 ml, Alcohol dehydrogenase eluted at 13 ml, BSA eluted at 14.5 ml, carbonic anhydrase eluted at 16.9 ml, and cytochrome C eluted at 19 ml followed by a standard curve generation.

[4] = biological target: T2, recombinant Mtb-DapA (Mtb-rDapA) (Mycobacterium tuberculosis, UniProt P9WP25)
T2 sequence (P9WP25 whole entry, looked up): as above

[5] = biological target: T2, recombinant Mtb-DapA (Mtb-rDapA); assay: biochemical

recombinant Mtb-DapA (Mtb-rDapA) (Mycobacterium tuberculosis H37Rv)
Km (CC(=O)C(=O)O): 148.8 µM

O=C(O)CCCCC(=O)C(=O)O [compound 1, 2-oxoheptanedioic acid]
Tm increase of Mtb-rDapA upon binding (Mtb-rDapA [1]): 1 °C | reduction of THDP product peak (SRM peak area / relative abundance) (Mtb-rDapA [2]; listed as KPA): up to 50% | reduction of THDP product peak (SRM peak area / relative abundance) (Mtb-rDapA [2]; listed as α-KPA): 50% | effect on Mtb-rDapA oligomerization (Mtb-rDapA [3]; ratios of 1:5 and 1:10 of Mtb-rDapA to α-KPA): the oligomerization was not affected | effect on Mtb-rDapA oligomerization (Mtb-rDapA [3]; α-KPA in 50-fold molar excess, 37 °C, 5 min): did not obtain any peak corresponding to either the tetramer or the octamer | fold increase of IC50, pre-incubation with pyruvate vs pre-incubation with α-KPA [4]: ~8 fold | Ki [5]: 32.5 µM | IC50 ([5]; IC50): 160 µM | IC50 ([5]; IC50, pyruvate 500 μM, ASA 400 μM): 21 µM | IC50 ([5]; IC50 of α-KPA, pyruvate 0.17 mM, ASA 400 μM, 10 min from start): 21 µM | IC50 ([5]; IC50 of α-KPA, pyruvate 0.17 mM, ASA 400 μM, 20 min from start): 21 µM | IC50 ([5]; IC50 of α-KPA, pyruvate 0.17 mM, ASA 400 μM, 30 min from start): 21 µM | IC50 ([5]; IC50 of α-KPA, pyruvate 0.17 mM, ASA 400 μM, 40 min from start): 31 µM | IC50 ([5]; IC50 of α-KPA, pyruvate 0.17 mM, ASA 400 μM, 50 min from start): 41 µM | IC50 ([5]; IC50 of α-KPA, pyruvate 0.17 mM, ASA 400 μM, 60 min from start): 51 µM | IC50 ([5]; IC50 of α-KPA, pyruvate 0.3 mM, ASA 400 μM, 10 min from start): 21 µM | IC50 ([5]; IC50 of α-KPA, pyruvate 0.3 mM, ASA 400 μM, 20 min from start): 21 µM | IC50 ([5]; IC50 of α-KPA, pyruvate 0.3 mM, ASA 400 μM, 30 min from start): 21 µM | IC50 ([5]; IC50 of α-KPA, pyruvate 0.3 mM, ASA 400 μM, 40 min from start): 31 µM | IC50 ([5]; IC50 of α-KPA, pyruvate 0.3 mM, ASA 400 μM, 50 min from start): 41 µM | IC50 ([5]; IC50 of α-KPA, pyruvate 0.3 mM, ASA 400 μM, 60 min from start): 51 µM | IC50 ([5]; IC50 of α-KPA, pyruvate 1 mM, ASA 400 μM, 10 min from start): 21 µM | IC50 ([5]; IC50 of α-KPA, pyruvate 1 mM, ASA 400 μM, 20 min from start): 21 µM | IC50 ([5]; IC50 of α-KPA, pyruvate 1 mM, ASA 400 μM, 30 min from start): 21 µM | IC50 ([5]; IC50 of α-KPA, pyruvate 1 mM, ASA 400 μM, 40 min from start): 31 µM | IC50 ([5]; IC50 of α-KPA, pyruvate 1 mM, ASA 400 μM, 50 min from start): 41 µM | IC50 ([5]; IC50 of α-KPA, pyruvate 1 mM, ASA 400 μM, 60 min from start): 51 µM | IC50 ([5]; IC50 of α-KPA, pyruvate 2 mM, ASA 400 μM, 10 min from start): 61 µM | IC50 ([5]; IC50 of α-KPA, pyruvate 2 mM, ASA 400 μM, 20 min from start): 61 µM | IC50 ([5]; IC50 of α-KPA, pyruvate 2 mM, ASA 400 μM, 30 min from start): 71 µM | IC50 ([5]; IC50 of α-KPA, pyruvate 2 mM, ASA 400 μM, 40 min from start): 81 µM | IC50 ([5]; IC50 of α-KPA, pyruvate 2 mM, ASA 400 μM, 50 min from start): 91 µM | IC50 ([5]; IC50 of α-KPA, pyruvate 2 mM, ASA 400 μM, 60 min from start): 101 µM | Emax ([5]; read-out: Maximal Inhibition (%)): 88% | inhibition at 400 µM ([5]; read-out: maximal inhibition): 77%
